Source: patent US12168664B2, “Triazolopyrimidines, their preparation and use” (THE TRUSTEES OF COLUMBIA UNIVERSITY IN THE CITY OF NEW YORK, priority 2018, dated 2024)
pIC50: −log10 of the molar value. Values joined by “and” are separate entries in the source; they are usually repeats but may differ in a detail not shown here. Equal entries are not always repeated.

Experiments:
PPARγ = PPARγ (Homo sapiens (Human), UniProt P37231); assay: PPARγ agonist assay (HTRF, PPARγ-NCOR interaction); format: biochemical; conditions: read-out: PPAR γ assay (HTRF) for agonists of this nuclear receptor - IC50
Chain of PPARγ (P37231 204-505): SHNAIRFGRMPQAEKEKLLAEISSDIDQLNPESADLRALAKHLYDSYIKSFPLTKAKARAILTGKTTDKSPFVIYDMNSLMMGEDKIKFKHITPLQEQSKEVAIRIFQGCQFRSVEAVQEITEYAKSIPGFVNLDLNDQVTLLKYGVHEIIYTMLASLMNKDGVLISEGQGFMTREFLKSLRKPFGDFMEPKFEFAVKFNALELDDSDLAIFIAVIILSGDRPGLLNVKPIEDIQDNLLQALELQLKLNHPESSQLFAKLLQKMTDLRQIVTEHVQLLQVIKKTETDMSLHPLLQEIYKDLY
Description: Significant safety issues are associated with the clinical use of PPARγ agonists (increased risk of death, myocardial infarction, stroke, congestive heart failure, hepatotoxicity, peripheral edema, weight gain and carcinogenicity^1-4). We wanted to characterize the compounds we identified in a pilot screen as potential PPARγ agonists. The PPARγ assay is based on agonist-sensitive interaction of the GST-tagged ligand-binding domain (LRD) of the nuclear receptor PPARγ with the biotinylated corepressor NCOR peptide (FIG. 8).
Assay reactions are performed in a final volume of 16 ul.
In well of the 384-well assay plate, mix 6 ul of PPARγ solution, 4 ul of NCOR2 solution and 4 μl of Rosi solution. Test compounds diluted from DMSO stocks to 4× assay concentration in 1×HTRF, 100 mM KF buffer may be dispensed to well instead of Rosi. Negative control wells contained DMSO solvent alone; positive control well contained […]. […] Two μl of detection mix was added per well. […] The plate was incubated for 16 hrs at 4° C.
HTRF signal was measured in the SpectraMax M5e Multimode Plate Reader (Molecular Device). Fluorescence was excited at 337 nm. […] The signal was expressed as the ratio of fluorescence intensity: Flu668/Flu620×10,000. […]

RBP4-TTR interaction = RBP4-TTR interaction (Homo sapiens (Human), UniProt P02753); assay: HTRF (TR-FRET) assay for antagonists of retinol-induced RBP4-TTR interaction; format: biochemical; conditions: in the presence of 1 μM retinol
Description: TR-FRET Assay for Retinol-Induced RBP4-TTR Interaction
Binding of a desired RBP4 antagonist displaces retinol and induces hindrance for RBP4-TTR interaction resulting in the decreased FRET signal (FIG. 7). Bacterially expressed MBP-RBP4 and untagged TTR were used in this assay. For the use in the TR-FRET assay, the maltose binding protein (MBP)-tagged human RBP4 fragment (amino acids 19-201) was expressed in the Gold(DE3)pLysS E. coli strain (Stratagene) using the pMAL-c4x vector. Following cell lysis, recombinant RBP4 was purified from the soluble fraction using the ACTA FPLC system (GE Healthcare) equipped with the 5-ml the MBP Trap HP column. Human untagged TTR was purchased from Calbiochem. Untagged TTR was labeled directly with Eu^3+ Cryptate-NHS using the HTRF Cryptate Labeling kit from CisBio following the manufacturer's recommendations. HTRF assay was performed in white low volume 384 well plates (Greiner-Bio) in a final assay volume of 16 μl per well. […] Titration of test compounds in this assay was conducted in the presence of 1 μM retinol. […] TR-FRET signal was measured in the SpectraMax M5e Multimode Plate Reader (Molecular Device). […] The TR-FRET signal was expressed as the ratio of fluorescence intensity: Flu665/Flu620×10,000.
(§1) The compounds listed below were tested in two in vitro assays, RBP4 binding (SPA) and retinol-dependent RBP4-TTR interaction (HTRF) (Table 1).

human RBP4 = human RBP4 (Homo sapiens (Human), UniProt P02753); assay: SPA binding assay for RBP4 (scintillation proximity, 3H-retinol displacement); conditions: 10 nM 3H-retinol, 50 nM biotinylated RBP4
Procedure: Scintillation Proximity RBP4 Binding Assay
Untagged human RBP4 purified from the urine of tubular proteinuria patients was purchased from Fitzgerald Industries International. It was biotinylated using the EZ-Link Sulfo-NHS-LC-Biotinylation kit from Pierce following the manufacturer's recommendations. […] Nonspecific binding was determined in the presence of 20 μM of unlabeled retinol. The reaction mix was assembled in the dark under dim red light. The plates were sealed with clear tape (TopSeal-A: 96-well microplate, PerkinElmer), wrapped in the aluminum foil, and allowed to equilibrate 6 hours at room temperature followed by overnight incubation at +4° C. Radiocounts were measured using a TopCount NXT counter (Packard Instrument Company).
as §1

[1] = Metabolic stability in liver microsomes (HLM); format: in vitro ADME, human
Procedure: (§2) The compounds listed below were tested in various metabolic stability and CYP inhibition assays.

CYP2C19 = CYP2C19 (Homo sapiens (Human), UniProt P33261); assay: CYP inhibition, fluorescent, CYP2C19; format: in vitro ADME
Chain of CYP2C19 (P33261 whole entry, species assumed): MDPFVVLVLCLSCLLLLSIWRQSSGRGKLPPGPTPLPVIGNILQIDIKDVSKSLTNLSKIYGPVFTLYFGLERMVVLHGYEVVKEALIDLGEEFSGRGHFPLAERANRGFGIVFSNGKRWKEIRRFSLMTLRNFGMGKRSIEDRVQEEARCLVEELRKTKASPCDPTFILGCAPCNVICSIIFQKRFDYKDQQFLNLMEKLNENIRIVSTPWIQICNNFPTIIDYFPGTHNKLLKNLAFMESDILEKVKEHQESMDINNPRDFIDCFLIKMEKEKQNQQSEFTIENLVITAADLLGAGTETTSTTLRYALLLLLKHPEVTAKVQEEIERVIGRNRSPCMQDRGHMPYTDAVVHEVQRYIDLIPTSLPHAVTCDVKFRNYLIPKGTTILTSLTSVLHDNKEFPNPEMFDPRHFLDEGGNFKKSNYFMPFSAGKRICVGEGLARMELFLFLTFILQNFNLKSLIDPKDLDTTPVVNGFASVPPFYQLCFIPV
Procedure: as §2

CYP2C9 = CYP2C9 (Homo sapiens (Human), UniProt P11712); assay: CYP inhibition, fluorescent, CYP2C9; format: in vitro ADME
Chain of CYP2C9 (P11712 whole entry, species assumed): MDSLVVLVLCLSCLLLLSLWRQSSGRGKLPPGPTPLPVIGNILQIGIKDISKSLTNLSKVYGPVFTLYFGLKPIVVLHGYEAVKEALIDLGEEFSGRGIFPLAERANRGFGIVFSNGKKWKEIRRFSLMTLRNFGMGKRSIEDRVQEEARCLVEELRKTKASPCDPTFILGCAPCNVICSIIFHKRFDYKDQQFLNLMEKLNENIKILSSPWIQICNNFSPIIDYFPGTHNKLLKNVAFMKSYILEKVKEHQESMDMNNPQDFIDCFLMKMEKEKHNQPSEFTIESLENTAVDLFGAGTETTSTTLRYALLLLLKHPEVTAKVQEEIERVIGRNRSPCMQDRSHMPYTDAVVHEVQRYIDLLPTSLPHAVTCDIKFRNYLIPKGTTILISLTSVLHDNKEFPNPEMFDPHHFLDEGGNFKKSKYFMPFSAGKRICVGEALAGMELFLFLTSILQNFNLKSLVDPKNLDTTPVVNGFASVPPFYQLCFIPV
Procedure: as §2

CYP2D6 = CYP2D6 (Homo sapiens (Human), UniProt P10635); assay: CYP inhibition, fluorescent, CYP2D6; format: in vitro ADME
Chain of CYP2D6 (P10635 whole entry, species assumed): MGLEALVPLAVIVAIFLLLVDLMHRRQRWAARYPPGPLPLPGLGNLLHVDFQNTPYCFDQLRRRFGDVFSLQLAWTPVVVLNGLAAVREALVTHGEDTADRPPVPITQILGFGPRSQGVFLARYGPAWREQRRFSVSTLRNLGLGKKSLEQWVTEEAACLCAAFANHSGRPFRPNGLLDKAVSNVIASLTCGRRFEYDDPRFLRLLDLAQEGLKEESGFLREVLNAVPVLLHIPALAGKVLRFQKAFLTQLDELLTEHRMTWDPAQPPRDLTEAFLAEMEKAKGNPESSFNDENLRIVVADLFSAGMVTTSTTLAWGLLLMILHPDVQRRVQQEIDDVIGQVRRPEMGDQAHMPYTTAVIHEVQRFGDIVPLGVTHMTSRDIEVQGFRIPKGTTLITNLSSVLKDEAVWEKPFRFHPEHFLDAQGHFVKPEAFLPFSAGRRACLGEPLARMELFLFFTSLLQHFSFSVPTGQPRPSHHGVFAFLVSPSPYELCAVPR
Procedure: as §2

CYP3A4 = CYP3A4 (Homo sapiens (Human), UniProt P08684); assay: CYP inhibition, fluorescent, CYP3A4; format: in vitro ADME
Chain of CYP3A4 (P08684 whole entry, species assumed): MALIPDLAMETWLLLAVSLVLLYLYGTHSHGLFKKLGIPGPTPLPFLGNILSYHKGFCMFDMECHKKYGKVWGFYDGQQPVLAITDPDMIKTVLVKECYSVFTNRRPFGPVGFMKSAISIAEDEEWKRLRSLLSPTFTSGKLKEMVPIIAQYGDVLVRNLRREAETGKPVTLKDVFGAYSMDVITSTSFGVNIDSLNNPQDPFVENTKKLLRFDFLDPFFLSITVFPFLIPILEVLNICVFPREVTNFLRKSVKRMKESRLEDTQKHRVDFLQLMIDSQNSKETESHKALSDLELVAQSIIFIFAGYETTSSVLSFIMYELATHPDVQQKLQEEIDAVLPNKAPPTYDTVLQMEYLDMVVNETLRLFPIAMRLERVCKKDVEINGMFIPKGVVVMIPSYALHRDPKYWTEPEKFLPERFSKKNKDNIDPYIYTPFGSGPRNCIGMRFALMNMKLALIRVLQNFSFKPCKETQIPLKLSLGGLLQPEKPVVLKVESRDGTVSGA
Procedure: as §2

Row | SMILES | pIC50 (PPARγ) | pIC50 (RBP4-TTR interaction) | pIC50 (human RBP4) | Metabolic stability in liver microsomes: % Remaining at 30 min, HLM [1] | pIC50 (CYP2C19) | pIC50 (CYP2C9) | pIC50 (CYP2D6) | pIC50 (CYP3A4)
1 | O=C(c1nnc2ncccn12)N1C[C@H]2C[C@@H](c3ccccc3C(F)(F)F)C[C@H]2C1 [Compound 7b] | < 4.00 | 6.18 | 7.34 |  |  |  |  | 
2 | O=C(c1nc2ncc(Br)cn2n1)N1C[C@H]2C[C@@H](c3ccccc3C(F)(F)F)C[C@H]2C1 [Compound 7c] | < 4.00 | 6.02 | 7.41 |  |  |  |  | 
3 | Cc1ccnc2nc(C(=O)N3C[C@H]4C[C@@H](c5ccccc5C(F)(F)F)C[C@H]4C3)nn12 [Compound 7d] | < 4.00 | 6.51 and 5.73 and 5.55 | 6.91 |  |  |  |  | 
4 | Cc1cnc2nc(C(=O)N3C[C@H]4C[C@@H](c5ccccc5C(F)(F)F)C[C@H]4C3)nn2c1 [Compound 7e] | < 4.00 |  |  | 85% and 66% | < 4.00 | 4.80 and 4.30 | 4.91 and 4.44 | 
5 | Cc1cc(C)n2nc(C(=O)N3C[C@H]4C[C@@H](c5ccccc5C(F)(F)F)C[C@H]4C3)nc2n1 [Compound 7f] | < 4.00 | 5.34 and 5.13 | 6.97 |  |  |  |  | 
6 | Cc1ccn2c(C(=O)N3C[C@H]4C[C@@H](c5ccccc5C(F)(F)F)C[C@H]4C3)nnc2n1 [Compound 7g] | < 4.00 | 6.38 | 7.35 | 61% | < 4.00 |  | < 4.00 | < 4.00
7 | O=C(c1nc2ncccn2n1)N1C[C@H]2C[C@@H](c3cc(F)ccc3C(F)(F)F)C[C@H]2C1 [Compound 7h] | < 4.00 | 6.39 | 7.42 |  |  |  |  | 
8 | O=C(c1nc2ncc(CCO)cn2n1)N1C[C@H]2C[C@@H](c3cc(F)ccc3C(F)(F)F)C[C@H]2C1 [Compound 7i] |  | 6.31 |  |  |  |  |  | 
9 | O=C(c1nc2ncc(CCO)cn2n1)N1C[C@H]2C[C@@H](c3ccccc3C(F)(F)F)C[C@H]2C1 [Compound 7j] | < 4.00 | 6.70 | 7.80 | 73% | < 4.00 | 4.22 | < 4.00 | < 4.00
10 | COCCc1cnc2nc(C(=O)N3C[C@H]4C[C@@H](c5ccccc5C(F)(F)F)C[C@H]4C3)nn2c1 [Compound 7k] | < 4.00 | 5.99 | 7.17 |  |  |  |  | 
11 | CC(=O)OCCc1cnc2nc(C(=O)N3C[C@H]4C[C@@H](c5ccccc5C(F)(F)F)C[C@H]4C3)nn2c1 [Compound 7l] | < 4.00 | 6.64 | 7.64 |  |  |  |  | 
12 | NCCc1cnc2nc(C(=O)N3C[C@H]4C[C@@H](c5ccccc5C(F)(F)F)C[C@H]4C3)nn2c1 [Compound 7m] | < 4.00 | 5.83 | 6.61 |  |  |  |  | 
13 | O=C(c1nc2ncc(CCCl)cn2n1)N1C[C@H]2C[C@@H](c3ccccc3C(F)(F)F)C[C@H]2C1 [Compound 7n] | < 4.00 | 6.20 | 7.17 |  |  |  |  | 
14 | O=C(c1nc2ncc(CCO)cn2n1)N1C[C@@H]2CN(c3ccccc3C(F)(F)F)C[C@@H]2C1 [Compound 7o] | < 4.00 | 6.59 | 7.66 |  | < 4.70 |  | < 4.70 | < 4.70
